“And” between values parts separate entries of the source, which are not always exact repeats. Equal entries are not always repeated. “Also recorded” adds a separate entry of the source. Square brackets hold non-standard residues; d marks the D form. Peptide text beside a SMILES is read from it. Nspe(4-Br) = C[C@H](NCC(=O)O)c1ccc(Br)cc1; N(tridecyl)Gly = CCCCCCCCCCCCCNCC(=O)O; Nspe = C[C@H](NCC(=O)O)c1ccccc1; Nlys = NCCCCNCC(=O)O
What was measured:
RAW 264.7 cells = test: Cytotoxicity against RAW 264.7 cells (MTT); format: cell-based, murine; conditions: for Host cell viability: 20 µM
Protocol: The cytotoxicity of different peptoids against RAW 264.7 cells was assessed by the MTT method following a published protocol. Briefly, murine macrophages were seeded in a 96‐well plate using DMEM supplemented with 10% FBS maintained at 37 °C and 5% CO2 for 24 h. Next, different concentrations of peptoids (5–80 μM) were added and incubated for 24 h followed by the addition of MTT for 2 h and solubilization of formazene crystals with DMSO addition. Percentage cell viability was calculated relative to the peptoid untreated sample.
Fig. 6 Percentage of living RAW 264.7 cells after incubation with different concentrations of peptoids. RAW 264.7 macrophage cells were incubated with peptoid for 24 h. […] The working concentration of 10 μM of peptoids caused only 50% or lower cytotoxicity in RAW 264.7 cells. Cell viability was determined by MTT assay, and data based on three experiments are represented by mean ± SD.

[1] = test system: Leishmania donovani intracellular amastigotes; test: Intracellular amastigote clearance in infected RAW 264.7 macrophages (Giemsa staining, microscopy); format: cell-based; design: key to Effect on intracellular amastigotes: *: Good; **: Better; ***: Best; conditions: 10 μM peptoid, infected RAW 264.7 cells; for Effect on intracellular amastigotes by Giemsa staining (number, size, count): vs untreated control, 24 h or 4 h; for Effect on intracellular amastigotes: Giemsa staining, grade
Protocol: To evaluate the inhibitory effect of different peptoids on intracellular amastigotes, RAW 264.7 cells were infected with logarithmic phase promastigotes. Briefly, RAW 264.7 cells (10^5 cells/well) were seeded in 24‐well plates with round sterile coverslips and allowed to adhere to the coverslip for 24 h at 37 °C at 5% CO2 DMEM media supplemented with 10% FBS. Adherent macrophages were infected with L. donovani promastigotes at 1 : 10 (macrophage: promastigotes) for 6 h. Co‐infected cells were washed with PBS three times and incubated for a further 24 h for infection establishment. After 24 h, media were removed and again washed with FBS‐free DMEM followed by peptoid treatment. Ten μM of different peptoids were added to the co‐infected cells and incubated for 4 h at 37 °C at 5% CO2. After 4 h, peptoid‐treated co‐infected cells were washed with PBS, fixed with 100% methanol, and stained with diluted Giemsa stain (1 : 10) (HiMedia, Mumbai, India). The parasite clearance status of peptoids was determined by counting the number of the parasites using the Leica LAS core microscope system by counting 100 cells per coverslip.
Fig. 2 Giemsa staining of intracellular amastigotes in macrophage 264.7 cells after treatment with different peptoids at 10 μM concentrations. Untreated amastigotes (A), sample treated with TM 1 (B), TM 2 (C), TM 3 (D), TM 4 (E), TM 5 (F), TM 7 (G), TM 9 (H), and TM 10 (I). Red arrow points to the amastigotes form of Leishmania donovani parasite. Scale bar represents […].

[2] = test system: Leishmania donovani promastigotes (Bob strain); format: cell-based; conditions: 4 h; for Reduction of promastigote viability: at 3 μM, MTT, vs untreated cells
Protocol: Promastigotes of bob L. donovani were harvested in the log phase, and parasite inhibition was determined through 3‐(4,5‐dimethylthiazol‐2‐yl)‐2,5‐diphenyl‐tetrazolium bromide (MTT) methods using twofold dilution techniques. Briefly, promastigote density of 2 × 10^6 cells was taken, and different peptoid dilutions were added (0.187–3 μM) in a total volume of 100 μL. Percentage parasite viability was evaluated at 4 h at 25 °C using MTT (Sigma‐Aldrich). Parasite viability rate (%) = [OD of test sample/OD of untreated sample] × 100.
All experiments were carried out in triplicate and repeated at least three times independently (biological replicates), and the figures shown are representative of these experiments. IC50 was calculated using GRAPHPAD PRISM 6.0 software. The data were analyzed using Student's t‐test for comparison of two groups, and data values were expressed as mean ± standard deviation (SD). Significant differences were determined and designated with asterisks as follows: *P < 0.05; **P < 0.01; ***P < 0.001; and ****P < 0.0001.
Fig. 1 Antileishmanial activity of peptoids against Leishmania donovani promastigotes. Early‐logarithmic‐phase promastigotes of L. donovani bob strain were treated with different peptoids at different concentrations (0–3 μM) for 4 h. Negative control was considered 100% of cell viability (untreated) and positive control (Triton X treated). Cellular viability was assessed by MTT assay, and the IC50 values were calculated using GRAPHPAD PRISM 6.0. Error bars represent SD N = 3 and n = 3.

What does the source list for C[C@@H](c1ccccc1)N(CC(N)=O)C(=O)CN(C(=O)CN(CCCCN)C(=O)CN(C(=O)CN(C(=O)CN(CCCCN)C(=O)CN(C(=O)CN(C(=O)CN(CCCCN)C(=O)CN(C(=O)CN(C(=O)CNCCCCN)[C@@H](C)c1ccccc1)[C@@H](C)c1ccccc1)[C@@H](C)c1ccccc1)[C@@H](C)c1ccccc1)[C@@H](C)c1ccccc1)[C@@H](C)c1ccccc1)[C@@H](C)c1ccccc1 [TM1] (H-[Nlys][Nspe][Nspe][Nlys][Nspe][Nspe][Nlys][Nspe][Nspe][Nlys][Nspe][Nspe]-NH2)?
Reduction in host cell viability (RAW 264.7 cells; RAW 264.7 cells, 10 μM, 24 h, MTT): ~ 40% and 40%; Effect on intracellular amastigotes by Giemsa staining (number, size, count) [1]: reduction in number and size of amastigotes; also recorded: reduces the amastigote count; Effect on intracellular amastigotes [1]: ***; Reduction of promastigote viability [2]: ≥ 50%

Which Host cell viability (RAW 264.7 cells) does the source give for C[C@@H](c1ccc(Br)cc1)N(CC(N)=O)C(=O)CN(C(=O)CN(CCCCN)C(=O)CN(C(=O)CN(C(=O)CNCCCCN)[C@@H](C)c1ccccc1)[C@@H](C)c1ccc(Br)cc1)[C@@H](C)c1ccccc1 [TM2] (H-[Nlys][Nspe][Nspe(4-Br)][Nlys][Nspe][Nspe(4-Br)]-NH2) here?
The Host cell viability was “more than 50%”.

What about the “Effect on intracellular amastigotes” value [1] of the same compound?
The value was “*”.

What about the IC50 [2] of the same compound?
Its IC50 is 1400 nM.

And the “Reduction of promastigote viability” value [2]?
The value was ≥ 50%.

For C[C@@H](c1ccc(Br)cc1)N(CC(N)=O)C(=O)CN(C(=O)CN(CCCCN)C(=O)CN(C(=O)CN(C(=O)CNCCCCN)[C@@H](C)c1ccccc1)[C@@H](C)c1ccccc1)[C@@H](C)c1ccccc1 [TM3] (H-[Nlys][Nspe][Nspe][Nlys][Nspe][Nspe(4-Br)]-NH2), which Host cell viability (RAW 264.7 cells) is on record?
The Host cell viability was “no toxicity”.

And the “Effect on intracellular amastigotes” value [1]?
The value was “*”.

And the IC50 [2]?
Its IC50 is 4600 nM.

C[C@@H](c1ccccc1)N(CC(N)=O)C(=O)CN(C(=O)CN(CCCCN)C(=O)CN(C(=O)CN(C(=O)CNCCCCN)[C@@H](C)c1ccccc1)[C@@H](C)c1ccccc1)[C@@H](C)c1ccccc1 [TM7] (H-[Nlys][Nspe][Nspe][Nlys][Nspe][Nspe]-NH2) was tested. Which Host cell viability (RAW 264.7 cells) did it give?
The Host cell viability was “no toxicity”.

What about the “Effect on intracellular amastigotes by Giemsa staining (number, size, count)” value [1] of the same compound?
Its value is “reduction in number and size of amastigotes; also recorded: significantly reduced their count”.

What about the “Effect on intracellular amastigotes” value [1] of the same compound?
The value was “**”.

And the IC50 [2]?
Its IC50 is 3030 nM.

And the “Reduction of promastigote viability” value [2]?
The value was ≥ 50%.

For CCCCCCCCCCCCCNCC(=O)N(CCCCN)CC(=O)N(CC(=O)N(CC(=O)N(CCCCN)CC(=O)N(CC(=O)N(CC(N)=O)[C@@H](C)c1ccc(Br)cc1)[C@@H](C)c1ccccc1)[C@@H](C)c1ccc(Br)cc1)[C@@H](C)c1ccccc1 [TM10] (H-[N(tridecyl)Gly][Nlys][Nspe][Nspe(4-Br)][Nlys][Nspe][Nspe(4-Br)]-NH2), which “Effect on intracellular amastigotes by Giemsa staining (number, size, count)” value [1] is on record?
Its value is “reduction in number and size of amastigotes; also recorded: significantly reduced their count”.

And the “Effect on intracellular amastigotes” value [1]?
The value was “***”.

What about the IC50 [2] of the same compound?
The IC50 was 1540 nM.
